Measurements published in patent US8357694B2, “Substituted 5,6-dihydro-6-phenylbenzo[F]isoquinolin-2-amine compounds” (ArQule, Inc., priority 2008, dated 2013).

Key:
Assay type in all cases: cell-based
PACA-2 = experiment: MTS cell kill, PACA-2
Experimental: (§1) Cells were maintained at 37° C., 5% CO2 in DMEM media supplemented with 1% fetal bovine serum, penicillin/streptomycin and fungizone (Invitrogen). Cells were seeded into 96-well tissue culture plates at 3000 per well and cultured at 37° C. for 18 hours. Test compounds were dissolved and diluted to 300× in DMSO then diluted 1:40 in DMEM.

PC-3 = experiment: MTS cell kill, PC-3
Experimental: as §1

KATO III = experiment: MTS assay, KATO III
Experimental: as §1

MDA-MB-231 = experiment: MTS cell kill, MDA-MB-231
Experimental: as §1

DLD-1 = experiment: MTS cell kill, DLD-1
Experimental: as §1

NCI-H1299 = experiment: MTS cell kill, NCI-H1299
Experimental: as §1
Note: test concentration or dose not given here.

Row | Structure (SMILES) | MTS cell kill data (% inhibition) PACA-2 (PACA-2) | MTS cell kill data (% inhibition) PC-3 (PC-3) | MTS cell kill data (% inhibition) KATO III (KATO III) | MTS cell kill data (% inhibition) MDA-MB-231 (MDA-MB-231) | MTS cell kill data (% inhibition) DLD-1 (DLD-1) | MTS cell kill data (% inhibition) NCI-H1299 (NCI-H1299)
1 | Cc1cccc(C(=O)Nc2ccc(C3Cc4cnc(NCCCCN(C)C)nc4-c4ccccc43)cc2)c1 (centres unmarked) [Example 469, N-[4-(2-{[4-(dimethylamino)butyl]amino}-5,6-dihydrobenzo[h]quinazolin-6-yl)phenyl]-3-methylbenzamide] | A (A = 80-100% inhibition) | A (A = 80-100% inhibition) | A (A = 80-100% inhibition) | A (A = 80-100% inhibition) | A (A = 80-100% inhibition) | A (A = 80-100% inhibition)
2 | CN(C)CCCCNc1ncc2c(n1)-c1ccccc1C(c1ccc(NS(=O)(=O)c3ccc(-c4ccccc4)cc3)cc1)C2 (centres unmarked) [Example 421, N-[4-(2-{[4-(dimethylamino)butyl]amino}-5,6-dihydrobenzo[h]quinazolin-6-yl)phenyl]biphenyl-4-sulfonamide] | A (A = 80-100% inhibition) | A (A = 80-100% inhibition) | A (A = 80-100% inhibition) | A (A = 80-100% inhibition) | A (A = 80-100% inhibition) | A (A = 80-100% inhibition)
3 | COc1ccc(C(=O)Nc2ccc(C3Cc4cnc(NCCCCN(C)C)nc4-c4ccccc43)cc2)cc1F (centres unmarked) [Example 474, N-[4-(2-{[4-(dimethylamino)butyl]amino}-5,6-dihydrobenzo[h]quinazolin-6-yl)phenyl]-3-fluoro-4-methoxybenzamide] | A (A = 80-100% inhibition) | A (A = 80-100% inhibition) | A (A = 80-100% inhibition) | B (B = 50-79% inhibition) | A (A = 80-100% inhibition) | A (A = 80-100% inhibition)
4 | CN(C)CCCCNc1ncc2c(n1)-c1ccccc1C(c1ccc(NS(=O)(=O)c3ccc(C(C)(C)C)cc3)cc1)C2 (centres unmarked) [Example 435, 4-tert-butyl-N-[4-(2-{[4-(dimethylamino)butyl]amino}-5,6-dihydrobenzo[h]quinazolin-6-yl)phenyl]benzenesulfonamide] | A (A = 80-100% inhibition) | A (A = 80-100% inhibition) | A (A = 80-100% inhibition) | A (A = 80-100% inhibition) | A (A = 80-100% inhibition) | A (A = 80-100% inhibition)
5 | CCCc1ccc(C(=O)Nc2ccc(C3Cc4cnc(NCCCCN(C)C)nc4-c4ccccc43)cc2)cc1 (centres unmarked) [Example 470, N-[4-(2-{[4-(dimethylamino)butyl]amino}-5,6-dihydrobenzo[h]quinazolin-6-yl)phenyl]-4-propylbenzamide] | A (A = 80-100% inhibition) | A (A = 80-100% inhibition) | A (A = 80-100% inhibition) | A (A = 80-100% inhibition) | A (A = 80-100% inhibition) | A (A = 80-100% inhibition)
6 | CN(C)CCCCNc1ncc2c(n1)-c1ccccc1C(c1ccc(NC(=O)c3ccccc3Br)cc1)C2 (centres unmarked) [Example 466, 2-bromo-N-[4-(2-{[4-(dimethylamino)butyl]amino}-5,6-dihydrobenzo[h]quinazolin-6-yl)phenyl]benzamide] | A (A = 80-100% inhibition) | B (B = 50-79% inhibition) | A (A = 80-100% inhibition) | B (B = 50-79% inhibition) | A (A = 80-100% inhibition) | A (A = 80-100% inhibition)
7 | Cc1ccc(S(=O)(=O)Nc2ccc(C3Cc4cnc(NCCCCN(C)C)nc4-c4ccccc43)cc2)c(C)c1 (centres unmarked) [Example 423, N-[4-(2-{[4-(dimethylamino)butyl]amino}-5,6-dihydrobenzo[h]quinazolin-6-yl)phenyl]-2,4-dimethylbenzenesulfonamide] | A (A = 80-100% inhibition) | A (A = 80-100% inhibition) | A (A = 80-100% inhibition) | A (A = 80-100% inhibition) | A (A = 80-100% inhibition) | A (A = 80-100% inhibition)
8 | COCC(=O)Nc1ccc(C2Cc3cnc(NCCCCN(C)C)nc3-c3ccccc32)cc1 (centres unmarked) [Example 471, N-[4-(2-{[4-(dimethylamino)butyl]amino}-5,6-dihydrobenzo[h]quinazolin-6-yl)phenyl]-2-methoxyacetamide] | A (A = 80-100% inhibition) | C (C = <50% inhibition) | A (A = 80-100% inhibition) | A (A = 80-100% inhibition) | A (A = 80-100% inhibition) | A (A = 80-100% inhibition)
9 | Cc1cccc(Cl)c1S(=O)(=O)Nc1ccc(C2Cc3cnc(NCCCCN(C)C)nc3-c3ccccc32)cc1 (centres unmarked) [Example 431, 2-chloro-N-[4-(2-{[4-(dimethylamino)butyl]amino}-5,6-dihydrobenzo[h]quinazolin-6-yl)phenyl]-6-methylbenzenesulfonamide] | A (A = 80-100% inhibition) | B (B = 50-79% inhibition) | A (A = 80-100% inhibition) | A (A = 80-100% inhibition) | A (A = 80-100% inhibition) | A (A = 80-100% inhibition)
10 | CNc1ncc2c(n1)-c1ccccc1C1(CCN(C(=O)Nc3cccc(Cl)c3)CC1)C2 [Example 408, N-(3-chlorophenyl)-2-(methylamino)-1′H,5H-spiro[benzo[h]quinazoline-6,4′-piperidine]-1′-carboxamide] | A (A = 80-100% inhibition) | – | A (A = 80-100% inhibition) | C (C = <50% inhibition) | A (A = 80-100% inhibition) | C (C = <50% inhibition)
